Values joined by “and” are separate entries in the source; they are usually repeats but may differ in a detail not shown here. Equal values may be shown once.
Tested on: Huh-7 cells
Assay: Metabolic disposition of [^14C]-Compound 1 and [^14C]-2′-C-methyl guanosine in Huh-7 cells (incubation medium, cellular extracts, nucleotide levels)
Assay type: in vitro ADME, human
Details: for 2′-C-methyl guanosine nucleotide levels in cellular extracts / Major metabolites observed in cellular extracts (% of total radioactivity): Huh7; for metabolites observed in medium (% of total radioactivity): Huh7 cells (n=2)
Protocol: Huh-7 cells: Confluent monolayers of Huh-7 cells were dispersed using trypsin-EDTA, rinsed and pelleted by centrifugation at 1,000 rpm (Beckman, Model Allegra 6R). Cells were resuspended at 0.2, 0.3 and 0.4×10^6 cells/mL of medium (DMEM supplemented with 1% pyruvate, 10% FBS, 0.5% penicillin-streptomycin, 1% L-glutamine, 1% non-essential amino acids and 22 mM HEPES). Multi-well collagen I-coated plates (rat tail collagen type I; 6-well) were then seeded by addition of 2.0 mL of cell suspension to achieve final cell density of 0.4, 0.6 and 0.8×10^6 cells/well and placed in an incubator at 37° C. overnight to allow cells to attach and acclimatize to culture and the medium. Duplicate plates were prepared with the same cell density for cell number determination at each time point.
Huh-7 incubations were conducted in a final volume of 2.0 mL Huh7 culture medium/well ([…]). Culture medium from overnight incubation of cells was removed and replaced with fresh culture medium, pre-warmed to 37° C. containing [^14C]-Compound 1 or [^14C]-2′-C-methyl guanosine as described above for primary hepatocytes. After 24, 48 and 72 hours, 0.5-1.0 mL of incubation medium was removed and stored at −20° C. until analysis (described below). The remaining medium was discarded and cell monolayers processed and extracted as described above.
Preliminary identification of putative metabolites was conducted by comparing the retention time of observed metabolites in incubation medium and cellular extracts with retention times obtained with chemically synthesized standards using the chromatography conditions described below. Further identification of 2′-C-methyl guanosine nucleotides (mono-, di- and triphosphate) was carried out by incubating cellular extract samples with alkaline phosphatase (10 units for 60 min at 37° C.) and comparing the HPLC retention times of the resulting nucleosides with that of authentic 2′-C-methyl guanosine.
Cellular extracts were prepared by centrifugation at 16,000 RCF using an Eppendorf microcentrifuge (Eppendorf, Model 5415D) for 10 min to remove cellular debris. An aliquot of 5-10 μL of the supernatant was added to 5 mL of EcoLite™ (MP, Irvine, Calif.) liquid scintillation cocktail and radioactivity measured by liquid scintillation counting (LSC) using a Beckman Coulter LS6500 multipurpose liquid scintillation counter (Beckman Instruments, Fullerton, Calif.). The remaining sample was then dried using a Labconco refrigerated centrivap concentrator (Labconco, Kansas City, Mo.). Dry extracts were reconstituted in 120 μL of HPLC-grade water and centrifuged at 16,000 RCF using an Eppendorf microcentrifuge for 10 min. Prior to HPLC analysis (described below), radioactivity of the concentrated extracts was measured by LSC using 5 μL aliquots. Extraction recovery was then determined by comparing total radioactivity in extracts before and after drying. The remaining extract was then analyzed by HPLC with online radioactivity detection using a Flow Scintillation Analyzer Radiomatic™ 515TR. Radioactivity in the separated components was quantified by integrating the peaks using Flo-One™ Software (Perkin Elmer Life Sciences). Samples with poor recovery (<85%) were re-analyzed when possible.
Incubation medium samples were thawed at room temperature, vortexed and centrifuged at 16,000 RCF using an Eppendorf microcentrifuge. An aliquot of 10 μL was added to 5 mL of EcoLite™ (MP, Irvine, Calif.) liquid scintillation cocktail and radioactivity measured by LSC using a Beckman Coulter LS6500 multipurpose liquid scintillation counter (Beckman Instruments, Fullerton, Calif.). Samples (50-100 μL) were then analyzed by HPLC (described below) with online radioactivity detection using a Flow Scintillation Analyzer Radiomatic™ 515TR. Radioactivity in the separated components was quantified by integrating the peaks using Flo-One™ Software (Perkin Elmer Life Sciences). Samples with poor recovery (<85%) were re-analyzed when possible. […]

[1] = 10 μM [^14C]-2′-C-methyl guanosine, 24 h
[2] = 10 μM [^14C]-2′-C-methyl guanosine, 48 h
[3] = 10 μM [^14C]-2′-C-methyl guanosine, 72 h
[4] = 10 μM [^14C]-Compound 1, 24 h, first series
[5] = 10 μM [^14C]-Compound 1, 24 h, second series
[6] = 10 μM [^14C]-Compound 1, 48 h, first series
[7] = 10 μM [^14C]-Compound 1, 48 h, second series
[8] = 10 μM [^14C]-Compound 1, 72 h, first series
[9] = 10 μM [^14C]-Compound 1, 72 h, second series

| SMILES | Major metabolites observed in cellular extracts (% of total radioactivity) [1] | Major metabolites observed in cellular extracts (% of total radioactivity) [2] | Major metabolites observed in cellular extracts (% of total radioactivity) [3] | Major metabolites observed in cellular extracts (% of total radioactivity) [4] | Major metabolites observed in cellular extracts (% of total radioactivity) [5] | Major metabolites observed in cellular extracts (% of total radioactivity) [6] | Major metabolites observed in cellular extracts (% of total radioactivity) [7] | Major metabolites observed in cellular extracts (% of total radioactivity) [8] | Major metabolites observed in cellular extracts (% of total radioactivity) [9] | metabolites observed in medium (% of total radioactivity) (10 μM [^14C]-Compound 1, 0 h) | metabolites observed in medium (% of total radioactivity) (10 μM [^14C]-Compound 1, 24 h) | metabolites observed in medium (% of total radioactivity) (10 μM [^14C]-Compound 1, 48 h) | metabolites observed in medium (% of total radioactivity) (10 μM [^14C]-Compound 1, 72 h) | also measured |
| --- | --- | --- | --- | --- | --- | --- | --- | --- | --- | --- | --- | --- | --- | --- |
| C[C@@]1(O)[C@H](O)[C@@H](COP(=O)(O)OP(=O)(O)O)O[C@H]1n1cnc2c(=O)[nH]c(N)nc21 [Compound 6, [(2R)-2-methyl-β-D-ribofuranosyl]guanine 5′-diphosphate] | BLD (BLD = below limit of detection (30 DPM)) | 3.56 % of total radioactivity | BLD (BLD = below limit of detection (30 DPM)) | BLD (BLD = below limit of detection (30 DPM)) | 7.55 % of total radioactivity | 6.14 % of total radioactivity | 6.42 % of total radioactivity | 6.86 % of total radioactivity | 8.44 % of total radioactivity |  |  |  |  | 2′-C-methyl guanosine nucleotide levels in cellular extracts (10 μM [^14C]-2′-C-methyl guanosine, 0 h, n = 1): 0 pmol/million cells; 2′-C-methyl guanosine nucleotide levels in cellular extracts (10 μM [^14C]-2′-C-methyl guanosine, 24 h, n = 1): BLD (BLD = below limit of detection (0.02 pmol/million cells)); 2′-C-methyl guanosine nucleotide levels in cellular extracts (10 μM [^14C]-2′-C-methyl guanosine, 48 h, n = 1): BLD (BLD = below limit of detection (0.02 pmol/million cells)); 2′-C-methyl guanosine nucleotide levels in cellular extracts (10 μM [^14C]-2′-C-methyl guanosine, 72 h, n = 1): BLD (BLD = below limit of detection (0.02 pmol/million cells)); 2′-C-methyl guanosine nucleotide levels in cellular extracts (10 μM [^14C]-Compound 1, 0 h, replicate 1 of n = 2): 0 pmol/million cells; 2′-C-methyl guanosine nucleotide levels in cellular extracts (10 μM [^14C]-Compound 1, 0 h, replicate 2 of n = 2): 0 pmol/million cells; 2′-C-methyl guanosine nucleotide levels in cellular extracts (10 μM [^14C]-Compound 1, 24 h, replicate 1 of n = 2): 2.20 pmol/million cells; 2′-C-methyl guanosine nucleotide levels in cellular extracts (10 μM [^14C]-Compound 1, 24 h, replicate 2 of n = 2): 0 pmol/million cells; 2′-C-methyl guanosine nucleotide levels in cellular extracts (10 μM [^14C]-Compound 1, 48 h, replicate 1 of n = 2): 1.60 pmol/million cells; 2′-C-methyl guanosine nucleotide levels in cellular extracts (10 μM [^14C]-Compound 1, 48 h, replicate 2 of n = 2): 1.40 pmol/million cells; 2′-C-methyl guanosine nucleotide levels in cellular extracts (10 μM [^14C]-Compound 1, 72 h, replicate 1 of n = 2): 1.60 pmol/million cells; 2′-C-methyl guanosine nucleotide levels in cellular extracts (10 μM [^14C]-Compound 1, 72 h, replicate 2 of n = 2): 1.10 pmol/million cells |
| C[C@@]1(O)[C@H](O)[C@@H](CO)O[C@H]1n1cnc2c(=O)[nH]c(N)nc21 [2′-C-methyl guanosine, 9-(2-C-methyl-β-D-ribofuranosyl)guanine, reference compound] | 89.5 % of total radioactivity | 89.3 % of total radioactivity | 89.6 % of total radioactivity | BLD^a (BLD = below limit of detection (30 DPM)) | BLD^a (BLD = below limit of detection (30 DPM)) | BLD (BLD = below limit of detection (30 DPM)) | 2.65 % of total radioactivity | BLD (BLD = below limit of detection (30 DPM)) | BLD (BLD = below limit of detection (30 DPM)) | BLD and BLD^a | 2.2% and 1.10% and 1.2% | 2.7% and 0.5% | 2% and 2.3% and 1.5% | metabolites in the incubation medium following incubation with [^14C]-2′-C-methyl guanosine (Huh7 cells): No metabolites were observed |
| C[C@@]1(O)[C@H](O)[C@@H](COP(=O)(O)NCc2ccccc2)O[C@H]1n1cnc2c(=O)[nH]c(N)nc21 [Compound 2, [(2R)-2-methyl-β-D-ribofuranosyl]guanine-N-benzylaminyl-5′-monophosphate] |  |  |  |  |  |  |  |  |  | 1.7% and 2.9% | 8.2% and 8.0% | 18.3% and 17.2% | 26% and 25.3% and 27.2% |  |

Reference: patent US20100003217A1, “Compounds and Pharmaceutical Compositions for the Treatment of Viral Infections” (priority 2008, published 2010)
